Measured values from US11873291B2, “Quinoline cGAS antagonist compounds” (ImmuneSensor Therapeutics, Inc., priority 2020, dated 2024).

Target: T1, recombinant human cGAS (aa147-522) (Homo sapiens, UniProt Q8N884)
T1 construct: recombinant human cGAS (aa147-522); His6-SUMO (cleaved yes); made in house; host or cells: E. coli BL21/pLys
Assay: In vitro inhibition assay of cGAS activity (ATP consumption, KinaseGlo Max)
Type: biochemical
Settings: Table 2, read-out: cGAS Inhibition Results IC50
Summary of the method: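 De-tagged recombinant human cGAS (aa147-522, 1.5 μg/mL) was incubated 20 min at 37 °C with herring testis DNA, 6.6 μM ATP and 0.1 mM GTP in Tris pH 7.5/MgCl2 buffer plus serial compound dilutions. Remaining ATP was read by KinaseGlo Max luminescence, and IC50 was fitted from % ATP consumption versus log concentration.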

T1 sequence (Q8N884 147-522): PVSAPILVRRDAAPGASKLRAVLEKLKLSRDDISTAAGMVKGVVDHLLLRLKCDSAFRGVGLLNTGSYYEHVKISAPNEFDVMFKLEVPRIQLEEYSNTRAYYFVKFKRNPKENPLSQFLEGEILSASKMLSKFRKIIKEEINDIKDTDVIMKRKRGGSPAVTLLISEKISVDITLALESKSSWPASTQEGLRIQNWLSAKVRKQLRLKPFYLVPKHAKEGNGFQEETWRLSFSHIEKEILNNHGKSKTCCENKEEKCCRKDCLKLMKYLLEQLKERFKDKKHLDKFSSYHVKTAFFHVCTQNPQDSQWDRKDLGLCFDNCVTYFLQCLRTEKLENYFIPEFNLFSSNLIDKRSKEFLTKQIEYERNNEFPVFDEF

| Compound | IC50 [nM] |
| --- | --- |
| O=C(O)c1cccc(-c2cc(-n3ccnc3)c3ccc(C(F)(F)F)cc3n2)c1 [I-49, 3-(4-(1H-imidazol-1-yl)-7-(trifluoromethyl)quinolin-2-yl)benzoic acid] | > 30000 |
| O=P(O)(O)Cc1cc(-n2ccnc2)c2ccc(Cl)c(Cl)c2n1 [I-251, ((7,8-dichloro-4-(1H-imidazol-1-yl)quinolin-2-yl)methyl)phosphonic acid] | > 30000 |
| Brc1ccc2nccc(-n3cccn3)c2c1 [I-415] | > 30000 |
| CNS(=O)(=O)CCN(C)c1cc(-n2ccnc2)c2ccc(Cl)c(Cl)c2n1 [I-205] | < 2000 |
| NS(=O)(=O)CCNc1cc(-c2cn[nH]c2)c2cc(Cl)c(Cl)cc2n1 [I-260] | < 2000 |
| CCNC(=O)[C@@H]1CCCN1c1cc(-n2ccnc2)c2ccc(Cl)c(Cl)c2n1 [I-451] | 2000 to 30000 |
| O=C(O)[C@H]1CCCN1C(=O)C[C@@H]1CCCN1c1cc(-n2ccnc2)c2ccc(Cl)c(Cl)c2n1 [I-386] | < 2000 |
| CS(=O)(=O)NC[C@@H]1CCCN1c1cc(-n2ccnc2)c2ccc(Cl)c(Cl)c2n1 [I-151] | < 2000 |
| O=C(O)[C@@H]1COCCN1c1cc(-c2cn[nH]c2)c2ccc(Cl)c(Cl)c2n1 [I-93] | < 2000 |
| C[C@@H](Nc1cc(-c2cn[nH]c2)c2ccc(Cl)c(Cl)c2n1)C(=O)OC(C)(C)C [I-402] | 2000 to 30000 |
| NS(=O)(=O)CCNc1cc(-c2cn[nH]c2)c2cc(C(F)(F)F)ccc2n1 [I-265] | > 30000 |
| O=C(O)CCNc1cc(-n2ccnc2)c2ccc(Cl)cc2n1 [I-182] | 2000 to 30000 |
| NS(=O)(=O)CCNc1cc(-c2cn[nH]c2)c2ccc(Cl)c(Cl)c2n1 [I-203] | < 2000 |
| O=C(O)CC1CCN(c2cc(-n3ccnc3)c3ccc(Cl)cc3n2)C1 (stereo not shown) [I-446] | 2000 to 30000 |
| C[C@@H](CS(N)(=O)=O)Nc1cc(-n2ccnc2)c2ccc(Cl)c(Cl)c2n1 [I-206] | 2000 to 30000 |
| CCN(CCN1CCOCC1)c1cc(-c2cn[nH]c2)c2ccc(Cl)c(Cl)c2n1 [I-212] | 2000 to 30000 |
| O=C(CO)NC1CCCN(c2cc(-n3ccnc3)c3ccc(Cl)cc3n2)C1 (stereo not shown) [I-106, N-(1-(7-chloro-4-(1H-imidazol-1-yl)quinolin-2-yl)piperidin-3-yl)-2-hydroxyacetamide] | 2000 to 30000 |
| Clc1ccc2c(-c3cn[nH]c3)cc(N(CCN3CCOCC3)Cc3ccccc3)nc2c1Cl [I-216] | 2000 to 30000 |
| O=C(O)c1cc2c(c(-c3cc(-n4ccnc4)c4ccc(Cl)cc4n3)c1)OC(F)(F)O2 [I-38] | > 30000 |
| O=S(=O)(O)CNc1cc(-n2ccnc2)c2ccc(Cl)c(Cl)c2n1 [I-157] | 2000 to 30000 |
| CN(CCC(=O)O)c1cc(-c2cn[nH]c2)c2ccc(Cl)c(Cl)c2n1 [I-184] | < 2000 |
| O=C(O)CNc1cc(-c2cn[nH]c2)nc2cc(Cl)cc(Cl)c12 [I-300] | > 30000 |
| O=C1NC(=O)C(CCCc2cc(-c3cn[nH]c3)c3ccc(Cl)c(Cl)c3n2)S1 (stereo not shown) [I-272, 5-(3-(7,8-dichloro-4-(1H-pyrazol-4-yl)quinolin-2-yl)propyl)thiazolidine-2,4-dione] | 2000 to 30000 |

| Compound | IC50 [nM] |
| --- | --- |
| O=C(O)c1ccccc1Oc1cc(-n2ccnc2)c2ccc(Cl)cc2n1 [I-283] | > 30000 |
| Clc1ccc2c(-c3cn[nH]c3)cc(N3CCOC(c4nnn[nH]4)C3)nc2c1Cl (stereo not shown) [I-370] | < 2000 |
| O=[PH](O)OCC1CCCN(c2cc(-c3cn[nH]c3)c3ccc(Cl)c(Cl)c3n2)C1 (stereo not shown) [I-329] | < 2000 |
| O=C(O)c1cncc(-c2cc(-n3ccnc3)c3ccc(Cl)cc3n2)c1 [I-32] | < 2000 |
| O=P(O)(O)OCC1CCCN(c2cc(-n3ccnc3)c3ccc(Cl)c(Cl)c3n2)C1 (stereo not shown) [I-113, (1-(7,8-dichloro-4-(1H-imidazol-1-yl)quinolin-2-yl)piperidin-3-yl)methyl dihydrogen phosphate] | < 2000 |
| COc1c(Cl)ccc2c(NCCO)cc(-c3cn[nH]c3)nc12 [I-401] | > 30000 |
| O=C1CN(c2cc(-c3cn[nH]c3)nc3c(Cl)c(Cl)ccc23)CCN1 [I-299] | > 30000 |
| Cc1cc(N2CCNC(=O)CC2)c2ccc(Cl)c(Cl)c2n1 [I-310] | > 30000 |
| CC(C)[C@H](CS(=O)(=O)O)Nc1cc(-n2ccnc2)c2ccc(Cl)cc2n1 [I-163] | > 30000 |
| O=[PH](O)OCC1CCCN(c2cc(-n3ccnc3)c3ccc(Cl)c(Cl)c3n2)C1 (stereo not shown) [I-110] | < 2000 |
| CC(C)[C@@H](CC(=O)O)Nc1cc(-n2ccnc2)c2ccc(Cl)c(Cl)c2n1 [I-187] | 2000 to 30000 |
| COc1ccc(-c2cc(-n3ccnc3)c3ccc(Cl)cc3n2)cc1 [I-2, 7-chloro-4-(1H-imidazol-1-yl)-2-(4-methoxyphenyl)quinoline] | 2000 to 30000 |
| O=C1CN(c2cc(Cl)nc3c(Cl)c(Cl)ccc23)CCN1 [I-307] | > 30000 |
| O=C(O)C1CN(c2cc(-n3ccnc3)c3ccc(Cl)cc3n2)CCS1 (stereo not shown) [I-89] | 2000 to 30000 |
| NS(=O)(=O)CCNc1cc(-c2cn[nH]c2)c2c(Cl)c(Cl)ccc2n1 [I-261] | > 30000 |
| CCOc1cc(-n2ccnc2)c2ccc(Cl)cc2n1 [I-280] | > 30000 |
| Cc1ccc(-c2cc(-n3ccnc3)c3ccc(Br)cc3n2)cc1 [I-385] | 2000 to 30000 |
| COC(=O)[C@H]1CCCN(c2cc(-n3ccnc3)c3ccc(Cl)cc3n2)C1 [I-356] | > 30000 |
| O=C(O)c1cc(-c2cc(-n3ccnc3)c3ccc(Cl)cc3n2)ccc1F [I-17] | 2000 to 30000 |
| CCOc1ccc(-c2cc(-n3ccnc3)c3ccc(Cl)cc3n2)cc1C(=O)O [I-19, 5-(7-chloro-4-(1H-imidazol-1-yl)quinolin-2-yl)-2-ethoxybenzoic acid] | < 2000 |
| C[C@H](CO)N(C)c1cc(-n2ccnc2)c2ccc(Cl)c(Cl)c2n1 [I-242] | < 2000 |
| CC(C)(NC(=O)C[C@@H]1CCCN1c1cc(-n2ccnc2)c2ccc(Cl)c(Cl)c2n1)C(=O)O [I-387] | < 2000 |

Same assay, conditions: Table 3, read-out: cGAS Inhibition Results IC50

| Compound | IC50 [nM] |
| --- | --- |
| NC(=O)[C@@H]1[C@@H](O)CCN1c1cc(-n2ccnc2)c2ccc(Cl)c(Cl)c2n1 [I-557] | < 2000 |
| O=C(O)CCOC[C@@H]1[C@@H]2C[C@@H]2CN1c1cc(-n2ccnc2)c2ccc(Cl)c(Cl)c2n1 (stereo in doubt) [I-809] | < 2000 |
| O=C1NCC2CCC1N2c1cc(-n2ccnc2)c2ccc(Cl)c(Cl)c2n1 (stereo not shown) [I-503] | < 2000 |
| COC(=O)C(O)[C@@H]1CCCN1c1cc(-n2ccnc2)c2ccc(Cl)c(Cl)c2n1 (stereo partly shown) [I-662] | 2000 to 30000 |
| CC12CN(c3cc(-n4ccnc4)c4ccc(Cl)c(Cl)c4n3)C(C(=O)O)(C1)C2 [I-475] | 2000 to 30000 |
| O=C(O)CCO[C@@H]1CCN(c2cc(-n3ccnc3)c3ccc(Cl)c(Cl)c3n2)C1 [I-767] | 2000 to 30000 |
| O=C(O)[C@@H]1[C@H]2C[C@H]2CN1c1cc(-n2ccnc2)c2ccc(Cl)c(Cl)c2n1 [I-480] | < 2000 |
| NC(=O)C[C@@H]1CCCN1c1cc(-n2ccnc2)c2ccc(Cl)c(Cl)c2n1 [I-603] | < 2000 |
| O=C(O)C1CCCN(C(=O)C[C@@H]2CCCN2c2cc(-n3ccnc3)c3ccc(Cl)c(Cl)c3n2)C1 (stereo partly shown) [I-530] | < 2000 |
| Cn1cc(-c2cc(N3CCC[C@H]3COCCC(=O)O)nc3c(Cl)c(Cl)ccc23)cn1 [I-826] | > 30000 |
| O=C(C[C@@H]1CCCN1c1cc(-n2ccnc2)c2ccc(Cl)c(Cl)c2n1)N1CCC(c2nnn[nH]2)C1 (stereo partly shown) [I-536] | < 2000 |
| CN(CCNC(=O)c1cccc(O)c1)c1cc(-n2ccnc2)c2ccc(Cl)c(Cl)c2n1 [I-619] | 2000 to 30000 |
| OC1CC2CCCC(C1)N2c1cc(-n2ccnc2)c2ccc(Cl)c(Cl)c2n1 (stereo not shown) [I-492] | 2000 to 30000 |
| CN(CCCOc1ccc(Cl)cc1C(=O)O)c1cc(-n2ccnc2)c2ccc(Cl)c(Cl)c2n1 [I-847] | 2000 to 30000 |
| O=C1CC2CCC(C1)N2c1cc(-n2ccnc2)c2ccc(Cl)c(Cl)c2n1 [I-488] | < 2000 |
| CN(CCNC(=O)CCO)c1cc(-n2ccnc2)c2ccc(Cl)c(Cl)c2n1 [I-614] | 2000 to 30000 |
| O=C(O)C#CC[C@@H]1CCCN1c1cc(-n2ccnc2)c2ccc(Cl)c(Cl)c2n1 [I-819, (S)-4-(1-(7,8-dichloro-4-(1H-imidazol-1-yl)quinolin-2-yl)pyrrolidin-2-yl)but-2-ynoic acid] | < 2000 |
| O=C(C[C@@H]1CCCN1c1cc(-n2ccnc2)c2ccc(Cl)c(Cl)c2n1)NC1CCNC1=O (stereo partly shown) [I-541] | < 2000 |
| COCCS(=O)(=O)NCCN(C)c1cc(-n2ccnc2)c2ccc(Cl)c(Cl)c2n1 [I-610] | < 2000 |
| O=C(O)[C@@H]1[C@@H](F)CCN1c1cc(-n2ccnc2)c2ccc(Cl)c(Cl)c2n1 [I-651] | < 2000 |
| CC(C)(NC(=O)C[C@@H]1CCCN1c1cc(-n2ccnc2)c2ccc(Cl)c(Cl)c2n1)C(=O)O [I-527] | < 2000 |
| CC(C)[C@H](NC(=O)[C@@H]1CCCN1c1cc(-n2ccnc2)c2ccc(Cl)c(Cl)c2n1)C(=O)O [I-550] | 2000 to 30000 |
| Clc1ccc2c(-n3ccnc3)cc(N3CCC(c4nn[nH]n4)C3)nc2c1Cl (stereo not shown) [I-464] | < 2000 |
| OC([C@@H]1CCCN1c1cc(-n2ccnc2)c2ccc(Cl)c(Cl)c2n1)(C(F)(F)F)C(F)(F)F [I-656, (S)-2-(1-(7,8-dichloro-4-(1H-imidazol-1-yl)quinolin-2-yl)pyrrolidin-2-yl)-1,1,1,3,3,3-hexafluoropropan-2-ol] | > 30000 |
| Cc1cn(-c2cc(N3CCC[C@H]3COCCC(=O)O)nc3c(Cl)c(Cl)ccc23)cn1 [I-825, (S)-3-((1-(7,8-dichloro-4-(4-methyl-1H-imidazol-1-yl)quinolin-2-yl)pyrrolidin-2-yl)methoxy)propanoic acid] | > 30000 |
| O=C(O)c1ccccc1S(=O)(=O)N[C@@H]1C[C@@H](C(=O)O)N(c2cc(-n3ccnc3)c3ccc(Cl)c(Cl)c3n2)C1 [I-509] | < 2000 |
| COC(=O)[C@@H]1C[C@@H](N)CN1c1cc(-n2ccnc2)c2ccc(Cl)c(Cl)c2n1 [I-589] | 2000 to 30000 |

Same assay, conditions: cGAS Inhibition Results IC50, Table 2

| Compound | IC50 [nM] |
| --- | --- |
| CCOP(=O)(O)CNc1cc(-c2cn[nH]c2)c2ccc(Cl)c(Cl)c2n1 [I-253, Ethyl hydrogen (7,8-dichloro-4-(1H-pyrazol-4-yl)quinolin-2-ylamino)methylphosphonate] | < 2000 |
